In PubChem BioAssay (NCI) one finds GI50 and TGI data, which are given here for 6 compounds.

Test systems include A498 renal; DU-145 prostate; HCC-2998 colon; NCI/ADR-RES ovarian; OVCAR-3 ovarian; OVCAR-4 ovarian; RPMI-8226 leukemia; SNB-19 CNS; SW-620 colon; UACC-62 melanoma.
Common to all, as to assay: NCI tumour cell line growth inhibition, 48 h

“And” between values parts separate entries of the source, which are not always exact repeats. Equal entries are not always repeated.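 Five concentrations, 48 hours, 96-well plates. GI50: concentration for 50% inhibition of growth. TGI: total growth inhibition.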

In the case of `COc1nnc2ccc(N3CCC(c4ccc(OCCN5CCN(C)C(=O)[C@H]5C)cc4)CC3)nn12`, the GI50 in the experiment on A498 renal is 81.3 nM; in the experiment on DU-145 prostate it was 9880 nM; with HCC-2998 colon, 138 nM; in the experiment on NCI/ADR-RES ovarian, 845 nM; with OVCAR-3 ovarian, 97.5 nM; with OVCAR-4 ovarian, 106 nM. Besides, the GI50 was 22.9 nM with RPMI-8226 leukemia, 224 nM with SNB-19 CNS, 5030 nM in the experiment with SW-620 colon and below 15.3 nM in the experiment on UACC-62 melanoma. The TGI is 3060 nM in the experiment with A498 renal; above 100000 nM in the experiment with DU-145 prostate; 16100 nM in the experiment with HCC-2998 colon; above 100000 nM in the experiment with NCI/ADR-RES ovarian; 53100 nM in the experiment with OVCAR-3 ovarian; above 100000 nM in the experiment on OVCAR-4 ovarian. Besides, the TGI in the experiment on RPMI-8226 leukemia was 54000 nM; with SNB-19 CNS, above 100000 nM; in the experiment with SW-620 colon, above 100000 nM; with UACC-62 melanoma, above 56900 nM.

`C#CCOc1ccc2ncnc(Nc3ccc(NC(=O)C=C)cc3)c2c1`: the GI50 with A498 renal was above 100000 nM; in the experiment with DU-145 prostate, 25400 nM; with HCC-2998 colon it was above 100000 nM; in the experiment with NCI/ADR-RES ovarian, above 100000 nM; in the experiment on OVCAR-3 ovarian it was 8240 nM; in the experiment on OVCAR-4 ovarian, above 100000 nM. In addition, the GI50 is 2630 nM in the experiment on RPMI-8226 leukemia, above 100000 nM in the experiment with SNB-19 CNS, 6300 nM in the experiment on SW-620 colon and 47300 nM in the experiment with UACC-62 melanoma. Also, the TGI in the experiment on A498 renal, in the experiment on DU-145 prostate, in the experiment with HCC-2998 colon, in the experiment on NCI/ADR-RES ovarian, in the experiment with OVCAR-3 ovarian and with OVCAR-4 ovarian was above 100000 nM in each case. Further, the TGI with RPMI-8226 leukemia was 7440 nM; in the experiment on SNB-19 CNS, above 100000 nM; in the experiment with SW-620 colon, 33100 nM; in the experiment with UACC-62 melanoma it was above 100000 nM.

For `N=c1c2c(=N)n3c(nc2nc2n1-c1ccccc1Sc1ccccc1-2)sc1cc(Cl)ccc13`, the GI50 in the experiment on A498 renal is 1790 nM; in the experiment with DU-145 prostate it was 3550 nM; in the experiment with HCC-2998 colon, 1320 nM; in the experiment on NCI/ADR-RES ovarian, 1840 nM; in the experiment on OVCAR-3 ovarian, 1120 nM; in the experiment with OVCAR-4 ovarian, 2780 nM. In addition, the GI50 was 988 nM in the experiment with RPMI-8226 leukemia, 2880 nM in the experiment on SNB-19 CNS, 3140 nM in the experiment on SW-620 colon and 1160 nM in the experiment on UACC-62 melanoma. In addition, the TGI in the experiment with A498 renal was 6330 nM; in the experiment on DU-145 prostate, above 100000 nM; in the experiment on HCC-2998 colon, 4970 nM; with NCI/ADR-RES ovarian it was 44600 nM; in the experiment on OVCAR-3 ovarian it was 4240 nM; with OVCAR-4 ovarian, above 100000 nM. Further, the TGI with RPMI-8226 leukemia was above 100000 nM; in the experiment with SNB-19 CNS it was 68700 nM; in the experiment with SW-620 colon, 71100 nM; in the experiment on UACC-62 melanoma, 9440 nM.

For the compound `CCC(=O)c1c(C(F)(F)F)n([O-])c2cc(F)c(F)cc2[n+]1=O`, the GI50 was 1740 nM in the experiment with A498 renal; 832 nM in the experiment with DU-145 prostate; 1450 nM with HCC-2998 colon; 822 nM with NCI/ADR-RES ovarian; 296 nM in the experiment with OVCAR-3 ovarian; 1830 nM with OVCAR-4 ovarian. Besides, the GI50 in the experiment with RPMI-8226 leukemia is 394 nM; in the experiment with SNB-19 CNS, 1350 nM; with SW-620 colon, 460 nM; with UACC-62 melanoma it was 571 nM. Besides, the TGI in the experiment with A498 renal was found to be 4920 nM; in the experiment with DU-145 prostate, 2330 nM; with HCC-2998 colon it was 2900 nM; with NCI/ADR-RES ovarian, 2350 nM; in the experiment with OVCAR-3 ovarian, 836 nM; in the experiment with OVCAR-4 ovarian, 4100 nM. Besides, the TGI was 1600 nM with RPMI-8226 leukemia, 3910 nM in the experiment with SNB-19 CNS, 2210 nM with SW-620 colon and 1330 nM in the experiment with UACC-62 melanoma.

In the case of `Cn1ncc(Cl)c1-c1cc(C(=O)N[C@H](CN)Cc2ccc(F)c(F)c2)oc1Cl`, the GI50 in the experiment on A498 renal is 30.3 nM and 40.4 nM; in the experiment with DU-145 prostate, 4250 nM and 2480 nM; in the experiment on NCI/ADR-RES ovarian, 10200 nM and 2940 nM; in the experiment with OVCAR-3 ovarian, 1970 nM and 1600 nM; in the experiment on OVCAR-4 ovarian it was 4060 nM and 5400 nM; with RPMI-8226 leukemia it was 2050 nM and 2620 nM. The GI50 in the experiment on SNB-19 CNS was 486 nM and 252 nM; in the experiment on SW-620 colon, 7820 nM and 4100 nM; in the experiment with UACC-62 melanoma, 625 nM and 494 nM. The TGI was 300 nM and 472 nM with A498 renal; 17800 nM and > 10000 nM with DU-145 prostate; 6230 nM and 2080 nM in the experiment on HCC-2998 colon; 24500 nM and > 10000 nM with NCI/ADR-RES ovarian; 15000 nM and > 10000 nM with OVCAR-3 ovarian; 17200 nM and > 10000 nM in the experiment on OVCAR-4 ovarian. Also, the TGI with RPMI-8226 leukemia was 7960 nM and > 7980 nM; in the experiment on SNB-19 CNS, 12900 nM and > 10000 nM; in the experiment on SW-620 colon, 21800 nM and > 10000 nM; in the experiment with UACC-62 melanoma, 3040 nM and 2650 nM.

With `O=C1/C=C/[C@@H](O)[C@@H]2C[C@@H](O)C[C@H]2/C=C/CCC[C@H](C(F)(F)F)O1`, the GI50 in the experiment on A498 renal is 70.5 nM; in the experiment on DU-145 prostate it was 955 nM; in the experiment with HCC-2998 colon it was 1140 nM; in the experiment on NCI/ADR-RES ovarian it was 408 nM; with OVCAR-3 ovarian, 103 nM; in the experiment with OVCAR-4 ovarian it was 139 nM. Further, the GI50 with RPMI-8226 leukemia was 274 nM; in the experiment on SNB-19 CNS, 6980 nM; in the experiment on SW-620 colon, 142 nM; in the experiment with UACC-62 melanoma, 223 nM. Moreover, the TGI is 715 nM in the experiment with A498 renal; above 100000 nM in the experiment with DU-145 prostate; 9200 nM with HCC-2998 colon; 11400 nM in the experiment with NCI/ADR-RES ovarian; 464 nM in the experiment on OVCAR-3 ovarian; above 100000 nM in the experiment on OVCAR-4 ovarian. Besides, the TGI was 1040 nM in the experiment on RPMI-8226 leukemia, above 100000 nM in the experiment on SNB-19 CNS, 331 nM in the experiment with SW-620 colon and above 35400 nM in the experiment with UACC-62 melanoma.
